Columns and labels:
Type in all cases: physicochemical
[1] = Particle size determination according to Dry Powder Method (Malvern Master sizer S); conditions: ezetimibe used in Examples 1, 3 and 4, in µm (unit assumed)
Excerpt: a) Particle Size Determination According to “Dry Powder Method”.
Typical Instrumental Conditions:
Pour the small volume sample in Drypowder Sampler unit. Set the feed rate & air pressure with the help of adjustable knob. And start the measurement until to get the obscuration between 15 and 30. Pass the laser beam through the sample cell to measure the particle size distribution and record the data into a histogram then report the results at 10%, 50% and 90% level of particles size distribution.
Note: Ensure the Laser power should be more than 60%.

[2] = Particle size determination according to Wet Method (Malvern laser diffraction); conditions: dioctyl sulfosuccinate sodium salt in n-hexane
Excerpt: b) Particle Size Determination According to “Wet Method”. Ezetimibe Samples PSD Measurement by Malvern Laser Diffraction
A Malvern Laser Diffraction instrument was used to characterize the particle size distribution of ezetimibe. A Mastersizer S model equipped with a small cell dispersion unit MSI with a digital dispersion unit controller was used. The measurement was done using range lens 300RF (working range […]), beam length: 2.40 mm and presentation 3NHE. In this case, a solution of dioctyl sulfosuccinate sodium salt in n-hexane was used as a dilution medium. The measurement was started after 1 minute of recirculation after suspension addition into measurement cell at speed rate 2000+−10 rpm. The suspension was prepared of ˜0.1 g sample in solution 0.065% dioctyl sulfosuccinate sodium salt in n-hexane by vortex for 10 seconds and by sonication for 30 seconds. According to the accepted rules of Good Manufacture Procedures, the sample of ezetimibe is preferably measured after a successful blank measurement (% obscuration NMT 0.1%) is performed.

[3] = Determination of specific surface area (BET, single point); conditions: BET, single point; Sample no. 1 of example 5b)
Method: The specific surface area is determined by […] using BET calculation.
Specific surface area is measured by using the following Parameters: • Instrument: Pulse Chemisorbs 2700 (micromeritics) • Degassing: With out degassing • Sensitivity: No • Calculations: BET • Type: Single point system • Points: One • Sample cell: 6 cm^3 Procedure: • Sample no. 1 of example 5b) of known weight is taken in the sample transparent U shape glass tube. The sample is […] to remove all atmosphere at liquid nitrogen temperature (−196° C.). This is achieved by passing nitrogen through the sample tube, which is placed in a liquid nitrogen bath (−196° C.). The value divided by the weight of the catalyst/sample taken in the tube gives the surface area of the sample. BET Surface Area: • Surface area determination is an important factor in determining the catalyst performance, a method of assessing the efficiency of the catalyst support and promoter. […]
Is a straight line (in the range of P/P0:0.05-0.3) with slope (C−1)/(VmC) and intercept 1/VmC. By knowing these intercept and slope values calculated and further specific surface area can be calculated as follows Specific surface area (m^2/g)={[Vm×NA]/[22414×Wt]}×Am • Where, • Vm=monolayer volume in ml at STP • NA=Avogadro number • Wt=Weight of the catalyst • Am=mean cross sectional area of adsorbate molecule ([…] for N2

| d(0.1) [1] | d(0.5) [1] | d(0.9) [1] | d(0.1) [2] [μm] | d(0.5) [2] [μm] | d(0.9) [2] [μm] | Specific surface area [3] [m^2/gram] | Compound |
| --- | --- | --- | --- | --- | --- | --- | --- |
| 3.349 | 6.356 | 11.429 | – | – | – | – | O=C1[C@H](CC[C@H](O)c2ccc(F)cc2)[C@@H](c2ccc(O)cc2)N1c1ccc(F)cc1 [Sample 3 of Example 5a] |
| – | – | – | 2.02 | 4.11 | 8.21 | – | O=C1[C@H](CC[C@H](O)c2ccc(F)cc2)[C@@H](c2ccc(O)cc2)N1c1ccc(F)cc1 [Sample 4] |
| – | – | – | 2.70 | 6.76 | 16.47 | – | O=C1[C@H](CC[C@H](O)c2ccc(F)cc2)[C@@H](c2ccc(O)cc2)N1c1ccc(F)cc1 [Sample 5] |
| – | – | – | – | – | – | 1.24 | O=C1[C@H](CC[C@H](O)c2ccc(F)cc2)[C@@H](c2ccc(O)cc2)N1c1ccc(F)cc1 [ezetimibe, 1-(4-fluorophenyl)-3(R)-[3-(4-fluorophenyl)-3(S)-hydroxypropyl]-4(S)-(4-hydroxyphenyl)-2-azetidinone] |
